Source: patent US20100144793A1, “NOVEL COMPOUNDS FOR THE TREATMENT OF DISEASES ASSOCIATED WITH AMYLOID OR AMYLOID-LIKE PROTEINS” (AC IMMUNE SA, priority 2006, published 2010)
Counter-ions that a name gives are not always drawn. Like-named read-outs stand apart in the source and are kept apart here. Each block holds one compound with its values, some of them ahead of it.

Experiments:
[1] = biological target: T1, Aβ1-42 (Homo sapiens, UniProt P05067); experiment: Thioflavin T spectrofluorescence assay: inhibition of Aβ1-42 aggregation; assay type: biochemical
T1 construct: Aβ1-42 lyophilized powder (Bachem) was reconstituted in hexafluoroisopropanol (HFIP) to 1 mM; purchased Bachem
Experimental: The objective of this example was to evaluate the capacity of the compounds of the invention to inhibit the aggregation of (Aβ)1-42 peptide and to disaggregate pre-aggregated Aβ1-42 using a thioflavin T spectrofluorescence assay.
Aβ1-42 lyophilized powder (Bachem) was reconstituted in hexafluoroisopropanol (HFIP) to 1 mM. The peptide solution was sonicated for 15 min at room temperature, agitated overnight, and aliquots were placed into non-siliconized microcentrifuge tubes. The HFIP was then evaporated under a stream of argon. The resulting peptide film was dried under vacuum for 10 min, tightly sealed and stored at −80° C. until used.
Aβ1-42 peptide film was dissolved in DMSO to reach 400 μM. Assay solution in PBS was prepared in non-siliconized incubation tubes to reach the following concentrations: 330 μM small molecule, 33 μM Aβ1-42, 10 μM thioflavin T (ThT), and 12.8% DMSO. Therefore, the final molar ratio of small molecule to Aβ1-42 was 10:1. A positive control without a small molecule was prepared to measure maximum RFU. A negative control without Aβ1-42 was prepared for each small molecule. 3-aminopyrazole trimer (Trimer) was tested in all assays to ascertain reproducibility between independent experiments. The solutions were then incubated for 24 h at 37° C., and the spectrofluorescence (relative fluorescence units; RFU) read in six replicates in black 384-well assay plates (Perkin-Elmer) on a Perkin-Elmer FluoroCount spectrofluorometer. Inhibition of aggregation is expressed as mean % inhibition±1 standard deviation (SD) according to the following equation: […]

[2] = biological target: T2, Oregon Green labeled Aβ(1-42) (Homo sapiens, UniProt P05067); experiment: FCS-assay with 5 nM Oregon Green labeled Aβ-peptide (disaggregation of preformed aggregates); assay type: biochemical
T2 construct: DMSO-stock solutions of Oregon Green labeled Aβ(1-42) 1:1 with deionized water
Experimental: In order to analyse the disaggregating properties of the compounds, preformed aggregates were used, which were induced straight before the FCS-measurement by diluting low concentrated (500 nM) DMSO-stock solutions of Oregon Green labeled Aβ(1-42) 1:1 with deionized water. The final concentration of Oregon Green labeled Aβ-peptide was 5 nM in 1×PBS and 3% DMSO.
To improve the reproducibility of the measurements of the concentration dependencies all samples were prepared fourfold.

[3] = 10:1 small molecule to Aβ1-42 molar ratio
[4] = Table 4, 10:1 small molecule to Aβ1-42 molar ratio, 24 h at 37° C., mean ± SD of 2 independent experiments, read-out: % inhibition
[5] = read-out: Percentage of the “number of peaks” value compared to the control reaction without added ligand
[6] = read-out: Percentage of the “peaks × height“ value compared to the control reaction without added ligand
[7] = Table 3, 10:1 small molecule to Aβ1-42 molar ratio, 24 h at 37° C., mean ± SD of two independent experiments, read-out: % Inhibition

T2 sequence (P05067 672-713 limits assumed): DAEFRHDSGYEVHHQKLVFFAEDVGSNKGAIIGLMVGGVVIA
T1 sequence (P05067 672-713 limits assumed): as above

Structure (SMILES): c1ccc(-c2cc(NCCNc3cc(-c4ccccn4)[nH]n3)n[nH]2)nc1 (as salt: hydrochloride) [Compound 1al, N^1,N^2-bis(5-(Pyridin-2-yl)-1H-pyrazol-3-yl)ethane-1,2-diamine tetra-hydrochloride]
melting point: > 250 °C

Structure (SMILES): c1[nH]nc(NCCNc2n[nH]cc2C2CC2)c1C1CC1 [Compound 1v, N^1,N^2-bis(4-Cyclopropyl-1H-pyrazol-3-yl)ethane-1,2-diamine bishydrochloride]
inhibition at 330 µM ([1]; 24 h): 15.3 ± 2.9%

inhibition of Aβ1-42 aggregation, in words [1, 3]: strong inhibition of aggregation
inhibition at 330 µM [1, 4]: 82.5 ± 5.8%
Structure (SMILES): c1ccc(-c2cc(NCCNc3cc(-c4ccccc4)[nH]n3)n[nH]2)cc1 [Compound 1e, N^1,N^2-bis(5-Phenyl)-1H-pyrazol-3-yl)ethane-1,2-diamine bishydrochloride]

Structure (SMILES): Cc1cc(NCCNc2cc(C)[nH]n2)n[nH]1 [Compound 1a, N^1,N^2-bis(5-Methyl-1H-pyrazol-3-yl)ethane-1,2-diamine bishydrochloride]
inhibition at 330 µM ([1]; 24 h): 37.6 ± 0.7%

Structure (SMILES): c1ccc(-c2cc(NCCNc3cc(-c4ccccn4)[nH]n3)n[nH]2)nc1 [Compound 1al, N^1,N^2-bis(5-(Pyridin-2-yl)-1H-pyrazol-3-yl)ethane-1,2-diamine tetra-hydrochloride]
inhibition of Aβ1-42 aggregation, in words [1, 3]: strong inhibition of aggregation
inhibition at 330 µM ([1]; 24 h): 90.1 ± 4.7%
remaining activity at 0.2 µM [2, 5]: 57.9%
remaining activity at 0.2 µM [2, 6]: 48%

Structure (SMILES): c1ccc(Cc2cc(NCCNc3cc(Cc4ccccc4)[nH]n3)n[nH]2)cc1 [Compound 1l, N^1,N^2-bis(5-Benzyl-1H-pyrazol-3-yl)ethane-1,2-diamine dihydrochloride]
inhibition at 330 µM ([1]; 24 h): 57.5 ± 7.6%

melting point: 220 to 222 °C
Structure (SMILES): c1ccc(-c2ccc(-c3cc(NCCNc4cc(-c5ccc(-c6ccccc6)cc5)[nH]n4)n[nH]3)cc2)cc1 (as salt: hydrochloride) [Compound 1am, N^1-(5-(Biphenyl-4-yl)-1H-pyrazol-3-yl)-N^2-(3-(biphenyl-4-yl)-1H-pyrazol-5-yl)ethane-1,2-diamine bishydrochloride]

Structure (SMILES): c1csc(-c2cc(NCCNc3cc(-c4cccs4)[nH]n3)n[nH]2)c1 [Compound 1h, N^1,N^2-bis(5-(2-Thienyl)-1H-pyrazol-3-yl)ethane-1,2-diamine bishydrochloride]
inhibition at 330 µM ([1]; 24 h): 69.9 ± 1.4%

Structure (SMILES): FC(F)(F)c1cccc2[nH]nc(NCCNc3n[nH]c4cccc(C(F)(F)F)c34)c12 (as salt: hydrochloride) [Compound 1ai, N,N′-bis(4-(Trifluoromethyl)-1H-indazol-3-yl)ethane-1,2-diamine bishydrochloride]
melting point: 222 °C

Structure (SMILES): Cc1ccc(-c2cc(NCc3cccc(CNc4cc(-c5ccc(C)cc5)[nH]n4)c3)n[nH]2)cc1 (as salt: hydrochloride) [Compound 1ao, N,N′-(1,3-Phenylenebis(methylene))bis(5-p-tolyl-1H-pyrazol-3-amine) dihydrochloride]
melting point: 183 °C

Structure (SMILES): Cc1ccc(-c2cc(NCc3ccc(CNc4cc(-c5ccc(C)cc5)[nH]n4)cc3)n[nH]2)cc1 [Compound 1ap, N,N′-(1,4-Phenylenebis(methylene))bis(5-p-tolyl-1H-pyrazol-3-amine) dihydrochloride]
inhibition of Aβ1-42 aggregation, in words [1, 3]: strong inhibition of aggregation
inhibition at 330 µM ([1]; 24 h): 66.2 ± 1.6%

Structure (SMILES): Clc1ccc(-c2c[nH]nc2NCCNc2n[nH]cc2-c2ccc(Cl)cc2)cc1 [Compound 1s, N^1,N^2-bis(4-(4-Chlorophenyl)-1H-pyrazol-3-yl)ethane-1,2-diamine bishydrochloride]
inhibition at 330 µM ([1]; 24 h): 66.6 ± 4.1%

Structure (SMILES): c1ccc(Cc2c[nH]nc2NCCNc2n[nH]cc2Cc2ccccc2)cc1 [Compound 1q, N^1,N^2-bis(4-Benzyl-1H-pyrazol-3-yl)ethane-1,2-diamine dihydrochloride]
inhibition at 330 µM ([1]; 24 h): 59.2 ± 4.9%

Structure (SMILES): Cc1ccc(-c2cc(NCC(C)(C)CNc3cc(-c4ccc(C)cc4)[nH]n3)n[nH]2)cc1 [Compound 1an, dihydrochloride]
inhibition of Aβ1-42 aggregation, in words [1, 3]: strong inhibition of aggregation
inhibition at 330 µM ([1]; 24 h): 55.9 ± 7.4%

Structure (SMILES): Cc1ccc(-c2cc(NCc3cccc(CNc4cc(-c5ccc(C)cc5)[nH]n4)n3)n[nH]2)cc1 [Compound 1aq, N,N′-(Pyridine-2,6-diylbis(methylene))bis(5-p-tolyl-1H-pyrazol-3-amine) trishydrochloride]
inhibition at 330 µM ([1]; 24 h): 82.9 ± 2.7%

Structure (SMILES): Cc1ccc(-c2cc(NCc3cccc(CNc4cc(-c5ccc(C)cc5)[nH]n4)c3)n[nH]2)cc1 [Compound 1ao, N,N′-(1,3-Phenylenebis(methylene))bis(5-p-tolyl-1H-pyrazol-3-amine) dihydrochloride]
inhibition at 330 µM ([1]; 24 h): 72.9 ± 0.7%

Structure (SMILES): c1csc(-c2c[nH]nc2NCCNc2n[nH]cc2-c2cccs2)c1 [Compound 1r, N^1,N^2-bis(4-(Thiophen-2-yl)-1H-pyrazol-3-yl)ethane-1,2-diamine bishydrochloride]
inhibition at 330 µM ([1]; 24 h): 49.5 ± 0.8%

Structure (SMILES): c1coc(-c2cc(NCCNc3cc(-c4ccco4)[nH]n3)n[nH]2)c1 [Compound 1m, N^1,N^2-bis(5-(2-Furyl)-1H-pyrazol-3-yl)ethane-1,2-diamine bishydrochloride]
inhibition of Aβ1-42 aggregation, in words [1, 3]: strong inhibition of aggregation
inhibition at 330 µM ([1]; 24 h): 52.9 ± 2.7%

inhibition of Aβ1-42 aggregation, in words [1, 3]: strong inhibition of aggregation
inhibition at 330 µM [1, 4]: 79.1 ± 4.8%
remaining activity at 0.2 µM ([2]; 200 nM compound, 5 nM labeled Aβ-peptide, read-out: Percentage of the “number of peaks” value compared to the control reaction without added ligand): 57.4%
remaining activity at 0.2 µM ([2]; 200 nM compound, 5 nM labeled Aβ-peptide, read-out: Percentage of the “peaks × height“ value compared to the control reaction without added ligand): 61.9%
Structure (SMILES): CN(C)c1ccc(-c2cc(NCCNc3cc(-c4ccc(N(C)C)cc4)[nH]n3)n[nH]2)cc1.Cl.Cl [Compound 1aj, N^1,N^2-bis(5-(4-(Dimethylamino)phenyl)-1H-pyrazol-3-yl)ethane-1,2-diamine bishydrochloride]

inhibition at 330 µM ([1]; Table 5, 10:1 small molecule to Aβ1-42 molar ratio, 24 h at 37° C., mean ± SD of two independent experiments, read-out: % inhibition): 40.4 ± 13%
Structure (SMILES): Cc1cc(NCCNc2n[nH]c(C)c2-c2ccc(Cl)cc2)n[nH]1 [Compound 1k, N,N′-(4-(4-Chlorophenyl)-5-methyl-1H-pyrazol-3-yl-N′-(5-methyl-1H-pyrazol-3-yl)ethane-1,2-diaminebishydrochloride]

Structure (SMILES): CC(C)(C)c1cc(NCCNc2cc(C(C)(C)C)[nH]n2)n[nH]1 [Compound 1j, N^1,N^2-bis(5-tert-Butyl-1H-pyrazol-3-yl)ethane-1,2-diamine bishydrochloride]
inhibition at 330 µM ([1]; 24 h): 11.5 ± 2.9%

inhibition at 330 µM [1, 7]: 7.3 ± 10.4%
Structure (SMILES): Cc1cc(NCC(=O)Nc2cc(C)[nH]n2)n[nH]1 [Compound 1w, N-(5-Methyl-1H-pyrazol-3-yl)-2-(5-methyl-1H-pyrazol-3-ylamino)acetamide]

Structure (SMILES): c1c(NCCNc2cc(C3CC3)[nH]n2)n[nH]c1C1CC1 [Compound 1i, N^1,N^2-bis(5-Cyclopropyl-1H-pyrazol-3-yl)ethane-1,2-diamine bishydrochloride]
inhibition at 330 µM ([1]; 24 h): 53.6 ± 27%

inhibition at 330 µM ([1]; 24 h): 38.7 ± 5.2%
Structure (SMILES): Cc1cc(NC(=O)C(=O)Nc2cc(C)[nH]n2)n[nH]1 [Ampox, reference compound]

inhibition at 330 µM [1, 7]: 9.7 ± 0.3%
Structure (SMILES): c1cc(NCCNc2cc[nH]n2)n[nH]1 [Compound 1b, N^1N^2-bis(1H-Pyrazol-3-yl)ethane-1,2-diamine bishydrochloride]

Structure (SMILES): COc1ccc(-c2c(NCCNc3n[nH]c(C)c3-c3ccc(OC)cc3)n[nH]c2C)cc1 [Compound 1t, N^1,N^2-bis(5-Methyl-4-methoxyphenyl)-1H-pyrazol-3-yl)ethane-1,2-diamine dihydrochloride]
inhibition at 330 µM ([1]; 24 h): 31.4 ± 0.5%

Structure (SMILES): Cc1[nH]nc(NCCNc2n[nH]c(C)c2-c2ccccc2)c1-c1ccccc1 [Compound 1c, N^1,N^2-bis(5-Methyl-4-phenyl-1H-pyrazol-3-yl)ethane-1,2-diamine bishydrochloride]
inhibition at 330 µM ([1]; 24 h): 52.7 ± 1.3%

Structure (SMILES): FC(F)(F)c1cccc2[nH]nc(NCCNc3n[nH]c4cccc(C(F)(F)F)c34)c12 [Compound 1ai, N,N′-bis(4-(Trifluoromethyl)-1H-indazol-3-yl)ethane-1,2-diamine bishydrochloride]
inhibition of Aβ1-42 aggregation, in words [1, 3]: strong inhibition of aggregation
inhibition at 330 µM ([1]; 24 h): 50.4 ± 8.4%

Structure (SMILES): Fc1ccc(-c2cc(NCCNc3cc(-c4ccc(F)cc4)[nH]n3)n[nH]2)cc1 [Compound 1ak, N^1,N^2-bis(5-(4-Fluorophenyl)-1H-pyrazol-3-yl)ethane-1,2-diamine bishydrochloride]
inhibition of Aβ1-42 aggregation, in words [1, 3]: strong inhibition of aggregation
inhibition at 330 µM ([1]; 24 h): 74 ± 5.9%
remaining activity at 0.1 µM [2, 5]: 57.4%
remaining activity at 0.2 µM [2, 5]: 51%
remaining activity at 0.1 µM [2, 6]: 43.3%
remaining activity at 0.2 µM [2, 6]: 44.8%
